Measured values published in US11866430B2, “Naphthyridinone compounds useful as T cell activators” (priority 2018, dated 2024).

Assays:
[1] = molecular target: T1, human DGKα (Homo sapiens (Human), UniProt P23743); assay: DGKα LIPGLO assay (extruded liposome substrate); format: biochemical
Outline: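 Human full-length DGKα, His-tagged and produced in Sf9 cells, assayed at 20 nM (4× stock) on extruded liposomes of PS, 0.25 mM DAG and 2.75 mM PC, preincubated 10 min. Reaction started with 300 μM ATP (stock) and ran 1 h in MOPS pH 7.5/MgCl2/CaCl2/DTT buffer.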

[2] = molecular target: T2, human DGKζ (Homo sapiens (Human), UniProt Q13574); assay: DGKζ LIPGLO assay (extruded liposome substrate); format: biochemical; conditions: extruded liposome substrate; read-out: DGKζ LIPGLO IC50
T2 sequence (Q13574 other isoform, or with tags, fused parts or gaps): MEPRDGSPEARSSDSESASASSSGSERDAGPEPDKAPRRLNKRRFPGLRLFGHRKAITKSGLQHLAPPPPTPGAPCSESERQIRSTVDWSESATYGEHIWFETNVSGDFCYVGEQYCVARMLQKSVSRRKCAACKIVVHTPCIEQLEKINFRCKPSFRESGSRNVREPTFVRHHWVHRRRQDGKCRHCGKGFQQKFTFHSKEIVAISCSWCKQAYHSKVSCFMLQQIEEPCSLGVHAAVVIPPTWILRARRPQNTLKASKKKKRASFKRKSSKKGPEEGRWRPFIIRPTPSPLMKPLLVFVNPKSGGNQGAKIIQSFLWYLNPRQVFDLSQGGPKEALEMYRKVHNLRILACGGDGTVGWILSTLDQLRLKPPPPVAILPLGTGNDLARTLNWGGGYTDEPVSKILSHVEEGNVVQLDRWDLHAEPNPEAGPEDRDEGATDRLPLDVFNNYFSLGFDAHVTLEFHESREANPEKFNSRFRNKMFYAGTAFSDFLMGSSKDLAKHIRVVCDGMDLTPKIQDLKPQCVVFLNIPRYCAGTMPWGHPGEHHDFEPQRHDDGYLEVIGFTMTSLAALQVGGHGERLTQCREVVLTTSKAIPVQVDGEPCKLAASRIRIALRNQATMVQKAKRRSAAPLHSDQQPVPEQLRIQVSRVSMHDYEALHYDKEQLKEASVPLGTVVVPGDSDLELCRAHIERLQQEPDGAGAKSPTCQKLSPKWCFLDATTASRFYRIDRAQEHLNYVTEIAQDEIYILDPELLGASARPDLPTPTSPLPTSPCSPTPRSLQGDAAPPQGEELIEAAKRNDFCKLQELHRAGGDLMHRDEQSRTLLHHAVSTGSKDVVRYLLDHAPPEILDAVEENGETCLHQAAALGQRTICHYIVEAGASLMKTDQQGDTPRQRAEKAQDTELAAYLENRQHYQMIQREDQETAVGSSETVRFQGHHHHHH
Outline: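 Recombinant DGKζ (Sf9-expressed, Ni/SEC/SP-purified) preincubated 10 min with extruded 100 nm PC/DAG/PS liposomes in 50 mM MOPS pH 7.5, 100 mM NaCl, 10 mM MgCl2, 1 μM CaCl2, 1 mM DTT. Started with 300 uM ATP solution (stock, pre-addition); 1 hr reaction. ADP-Glo luminescence; IC50 from 11 concentrations.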

[3] = molecular target: T1, human DGKα; assay: biochemical; conditions: detergent/lipid micelle substrate; read-out: DGKα IC50
Outline: (§1)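 Full-length human DGKα or DGKζ (C-terminal His tag, Sf9-expressed; 20 nM 4× stock) was preincubated 10 min at room temperature with PS/DAG octyl glucoside micelles in MOPS pH 7.5 buffer with MgCl2, CaCl2 and DTT. It was then started with ATP (300 uM addition) and run for 1 hr, with ADP-Glo luminescence read-out.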

[4] = molecular target: T2, human DGKζ; assay: DGKζ assay (detergent/lipid micelle substrate); format: biochemical; conditions: detergent/lipid micelle substrate; read-out: DGKζ IC50
Outline: as §1

[5] = system: pre-activated CD4 T cells and Raji cells; assay: Raji CD4 T Cell IL2 Assay; format: cell-based; conditions: Homo sapiens, Raji

T1 sequence (P23743 other isoform, or with tags, fused parts or gaps): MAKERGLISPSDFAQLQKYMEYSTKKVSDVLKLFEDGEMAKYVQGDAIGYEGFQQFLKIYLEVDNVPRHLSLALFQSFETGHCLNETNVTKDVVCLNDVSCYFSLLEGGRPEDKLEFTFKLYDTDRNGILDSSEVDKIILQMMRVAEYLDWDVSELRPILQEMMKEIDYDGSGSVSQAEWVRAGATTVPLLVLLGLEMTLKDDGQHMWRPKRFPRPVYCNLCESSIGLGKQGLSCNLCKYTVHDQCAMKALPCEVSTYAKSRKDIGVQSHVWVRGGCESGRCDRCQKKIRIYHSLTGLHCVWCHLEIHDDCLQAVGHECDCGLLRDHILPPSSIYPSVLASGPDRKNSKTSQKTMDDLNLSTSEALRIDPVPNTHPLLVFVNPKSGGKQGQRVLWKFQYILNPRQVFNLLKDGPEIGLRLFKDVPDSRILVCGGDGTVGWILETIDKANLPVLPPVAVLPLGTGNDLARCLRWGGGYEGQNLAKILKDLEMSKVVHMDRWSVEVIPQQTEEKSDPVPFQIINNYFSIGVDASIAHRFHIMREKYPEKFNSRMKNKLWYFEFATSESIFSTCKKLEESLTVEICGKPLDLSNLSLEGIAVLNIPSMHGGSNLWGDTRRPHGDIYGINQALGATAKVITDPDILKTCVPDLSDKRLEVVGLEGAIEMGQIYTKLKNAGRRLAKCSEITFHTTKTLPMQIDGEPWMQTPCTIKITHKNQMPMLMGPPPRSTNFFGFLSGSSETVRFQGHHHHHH

Structure (SMILES) | IC50 [1] [nM] | IC50 [2] [nM] | IC50 [3] [nM] | IC50 [4] [nM] | IC50 [5] [nM]
Cn1c(=O)c(C#N)c(N2CCN(C(c3ccc(F)cc3)c3ccc(F)cc3)CC2)c2nc(C#N)ccc21 [Example 217, 8-(4-(bis(4-fluorophenyl)methyl)piperazin-1-yl)-5-methy-6-oxo-5,6-dihydro-1,5-naphthyridine-2,7-dicarbonitrile] | 1300 | 1400 | 2300 | 4500 | 67
Cn1c(=O)c(C#N)c(N2CCN(C(c3ccc(F)cc3)c3ccc(F)cc3)CC2)c2nc(Cl)ccc21 [Example 218, 4-(4-(bis(4-fluorophenyl)methyl)piperazin-1-yl)-6-chloro-1-methyl-2-oxo-1,2-dihydro-1,5-naphthyridine-3-carbonitrile] | 1500 | 5100 | 690 | > 81000 | 93
Cn1c(=O)c(C#N)c(N2CCN(Cc3cccc4ccccc34)CC2)c2nc(Cl)ccc21 [Example 221, 6-chloro-1-methyl-4-(4-(naphthalen-1-ylmethyl)piperazin-1-yl)-2-oxo-1,2-dihydro-1,5-naphthyridine-3-carbonitrile] | 3400 | 18000 | 740 | > 240000 | 330
Cn1c(=O)c([N+](=O)[O-])c(N2CCN(C(c3ccccc3)c3ccccc3)CC2)c2nc(C#N)ccc21 [Example 223, 8-(4-benzhydrylpiperazin-1-yl)-5-methyl-7-nitro-6-oxo-5,6-dihydro-1,5-naphthyridine-2-carbonitrile] | 9900 | 620 | 1900 | 3200 | 42
CCn1ccc2c(CN3CCN(c4c(C#N)c(=O)n(C)c5ccc(Br)nc45)CC3)cccc21 [Example 225, 6-bromo-4-(4-((1-ethyl-1H-indol-4-yl)methyl)piperazin-1-yl)-1-methyl-2-oxo-1,2-dihydro-1,5-naphthyridine-3-carbonitrile] | 820 | 1300 | 390 | 14000 | 70
Cc1ccc2c(n1)c(N1CCN(C(c3ccc(F)cc3)c3ccc(F)cc3)CC1)c(C#N)c(=O)n2C [Example 226, 4-(4-(bis(4-fluorophenyl)methyl)piperazin-1-yl)-1,6-dimethyl-2-oxo-1,2-dihydro-1,5-naphthyridine-3-carbonitrile] | 3900 | 10000 | 1600 | 70000 | 84
Cn1c(=O)c(C(=O)C(F)(F)F)c(N2CCN(C(c3ccc(F)cc3)c3ccc(F)cc3)CC2)c2ncccc21 [Example 227, 4-(4-(bis(4-fluorophenyl)methyl)piperazin-1-yl)-1-methyl-3-(2,2,2-trifluoroacetyl)-1,5-naphthyridin-2(1H)-one] | 230000 | 11000 | > 240000 | > 240000 | 1500
C#CCn1c(=O)c(C#N)c(N2CCN(C(c3ccc(F)cc3)c3ccc(F)cc3)CC2)c2nc(Br)ccc21 [Example 229, 4-(4-(bis(4-fluorophenyl)methyl)piperazin-1-yl)-6-bromo-2-oxo-1-(prop-2-yn-1-yl)-1,2-dihydro-1,5-naphthyridine-3-carbonitrile] | > 240000 | 11000 | 14000 | 14000 | 120
Cc1ccc2c(n1)c(N1CCN(C(c3ccc(F)cc3)c3ccc(F)cc3)CC1)c(Cl)c(=O)n2C [Example 233, 4-(4-(bis(4-fluorophenyl)methyl)piperazin-1-yl)-3-chloro-1,6-dimethyl-1,5-naphthyridin-2(1H)-one] | 3000 | 6600 | 8400 | > 240000 | 480
Cc1ccc2c(n1)c(N1CCN(C(c3ccc(F)cc3)c3ccc(F)cc3)CC1)c(Br)c(=O)n2C [Example 239, 4-(4-(bis(4-fluorophenyl)methyl)piperazin-1-yl)-3-bromo-1,6-dimethyl-1,5-naphthyridin-2(1H)-one] | 9900 | 51000 | 11000 | > 240000 | 3600
Cn1c(=O)c(C#N)c(N2CCN(Cc3c(O)cccc3Br)CC2)c2nc(Cl)ccc21 [Example 258, 4-{4-[(2-bromo-6-hydroxyphenyl)methyl]piperazin-1-yl}-6-chloro-1-methyl-2-oxo-1,2-dihydro-1,5-naphthyridine-3-carbonitrile] | 1600 | 5300 | 430 | 26000 | 5.3
Cc1cccc(O)c1CN1CCN(c2c(C#N)c(=O)n(C)c3ccc(Br)nc23)CC1 [Example 259, 6-bromo-4-{4-[(2-hydroxy-6-methylphenyl)methyl]piperazin-yl}-1-methyl-2-oxo-1,2-dihydro-1,5-naphthyridine-3-carbonitrile] | 490 | 4000 | 420 | 55000 | 16
Cn1c(=O)c(C#N)c(N2CCN(Cc3ccc(C(C)(C)C)cc3O)CC2)c2nc(Cl)ccc21 [Example 261, 4-{4-[(4-tert-butyl-2-hydroxyphenyl)methyl]piperazin-1-yl}-6-chloro-1-methyl-2-oxo-1,2-dihydro-1,5-naphthyridine-3-carbonitrile] | 710 | 10000 | 430 | > 240000 | 21
Cn1c(=O)c(C#N)c(N2CCN(Cc3ccc(Br)cc3O)CC2)c2nc(C#N)ccc21 [Example 263, 8-{4-[(4-bromo-2-hydroxyphenyl)methyl]piperazin-1-yl}-5-methyl-6-oxo-5,6-dihydro-1,5-naphthyridine-2,7-dicarbonitrile] | 220 | 5200 | 84 | 14000 | 35
Cn1c(=O)c(C#N)c(N2CCN(Cc3ccc(Cl)cc3O)CC2)c2nc(C#N)ccc21 [Example 269, 8-{4-[(4-chloro-2-hydroxyphenyl)methyl]piperazin-1-yl}-5-methyl-6-oxo-5,6-dihydro-1,5-naphthyridine-2,7-dicarbonitrile] | 210 | 2800 | 52 | 26000 | 57
Cn1c(=O)c(C#N)c(N2CCN(Cc3ccccc3Cl)CC2)c2nc(Cl)ccc21 [Example 272, 6-chloro-4-{4-[(2-chlorophenyl)methyl]piperazin-1-yl}-1-methyl-2-oxo-1,2-dihydro-1,5-naphthyridine-3-carbonitrile] | 2300 | 10000 | 1500 | > 240000 | 64
Cc1ccc(CN2CCN(c3c(C#N)c(=O)n(C)c4ccc(Cl)nc34)CC2)c(O)c1 [Example 273, 6-chloro-4-{4-[(2-hydroxy-4-methylphenyl)methyl]piperazin-1-yl}-1-methyl-2-oxo-1,2-dihydro-1,5-naphthyridine-3-carbonitrile] | 82 | 7800 | 18 | 69000 | 64
COc1c(F)cccc1CN1CCN(c2c(C#N)c(=O)n(C)c3ccc(Cl)nc23)CC1 [Example 274, 6-chloro-4-{4-[(3-fluoro-2-methoxyphenyl)methyl]piperazin-1-yl}-1-methyl-2-oxo-1,2-dihydro-1,5-naphthyridine-3-carbonitrile] | 1600 | 5400 | 670 | 30000 | 72
Cn1c(=O)c(C#N)c(N2CCN(Cc3cc(Br)ccc3O)CC2)c2nc(Cl)ccc21 [Example 275, 4-{4-[(5-bromo-2-hydroxyphenyl)methyl]piperazin-1-yl}-6-chloro-1-methyl-2-oxo-1,2-dihydro-1,5-naphthyridine-3-carbonitrile] | 770 | 10000 | 300 | 58000 | 73
Cc1ccc2c(n1)c(N1CCN(Cc3cc(Br)ccc3O)CC1)c(C#N)c(=O)n2C [Example 277, 4-{4-[(5-bromo-2-hydroxyphenyl)methyl]piperazin-1-yl}-1,6-dimethyl-2-oxo-1,2-dihydro-1,5-naphthyridine-3-carbonitrile] | 1700 | 13000 | 750 | 45000 | 79
COc1ccc(CN2CCN(c3c(C#N)c(=O)n(C)c4ccc(Cl)nc34)CC2)cc1F [Example 279, 6-chloro-4-{4-[(3-fluoro-4-methoxyphenyl)methyl]piperazin-1-yl}-1-methyl-2-oxo-1,2-dihydro-1,5-naphthyridine-3-carbonitrile] | 810 | 5800 | 380 | 56000 | 92
Cc1cccc(CN2CCN(c3c(C#N)c(=O)n(C)c4ccc(Cl)nc34)CC2)c1F [Example 281, 6-chloro-4-{4-[(2-fluoro-3-methylphenyl)methyl]piperazin-1-yl}-1-methyl-2-oxo-1,2-dihydro-1,5-naphthyridine-3-carbonitrile] | 2000 | 9900 | 390 | 49000 | 93
